Assay results as given in ChEMBL document CHEMBL3507680, “University of Dundee, Gates Library screen for HepG2 cell viability”.

Test: Human HepG2 cell viability assay in 384 well format
Assay type: toxicity, cell-based
Parameters: dose 125 nL, time 70.5 hour; cytotoxicity at 70.5 h: concentration not given beside the values
Details: HepG2 cells, read-out: Inhibition

Row | Compound | cytotoxicity at 70.5 h [%]
1 | CCC(=O)N1CCC(c2cc(Nc3ncccn3)nc(C)n2)C1 (configuration not stated) | -10.9
2 | CC(=O)N1CCC(N2CC(Cc3nccc4ccn(C)c34)C2)CC1 | -6.03
3 | Cc1cc(N2CCCC2c2cc(Nc3cnccn3)nc(C)n2)ncn1 (configuration not stated) | -11.4
4 | CC(=O)N1CCCC(c2ccc(C(N)=O)cn2)C1 (configuration not stated) | -8.88
5 | CC(C)S(=O)(=O)N1CCC(c2[nH]ncc2S(C)(=O)=O)C1 (configuration not stated) | -2.31
6 | CN(C)C(=O)CN1CCCC(CCCc2ccccn2)(C(N)=O)C1 (configuration not stated) | 10.1
7 | Cc1cccc(CN2CCCC2(C(N)=O)c2cnccn2)n1 (configuration not stated) | 19
8 | CNCC(=O)N1CCCC(c2ccnc(Nc3cnccn3)n2)C1 (configuration not stated) | -9.17
9 | CN1CCC(Cc2cc(Nc3ccccn3)ncn2)CC1 | 10.1
10 | Cc1c(C2CCCN(C(=O)c3cccnc3)C2)n2c(nc1=O)CCC2 (configuration not stated) | -8.11
11 | CNc1nccnc1C1CCN(C(C)C)CC1 | 12.4
12 | CN(C)C(=O)CN1CCCC1c1nccnc1Nc1ccccn1 (configuration not stated) | -8.51
13 | CNc1cc(N2CCC(O)(CNC(=O)c3ccc(C)nc3)C2)ncn1 (configuration not stated) | -6.58
14 | CN(C)c1cncc(C2CCN(CC(N)=O)CC2)n1 | -0.457
15 | O=C(Cn1ccnc1)N1C[C@@H]2CC[C@H](Oc3ccccc3F)[C@@H]2C1 | 10.9
16 | Cc1noc(C)c1-c1cncc(CC2CCN(C(=O)c3cc[nH]n3)C2)n1 (configuration not stated) | -4.86
17 | Cc1nnsc1C(=O)N1CCCC(n2nnc3cc(F)ccc32)C1 (configuration not stated) | -5.58
18 | O=C(c1n[nH]cc1Cl)N1CCCC(n2nnc3cc(F)ccc32)C1 (configuration not stated) | -5.16
19 | Cc1nn(C)cc1CN1CCc2nc(-c3cccnc3)nc(O)c2C1 | -3.92
20 | CCn1ncc(CN2CCc3nc(-c4cccnc4)nc(O)c3C2)c1C | 9.93
21 | Cc1ccc(O)c(CN2CCc3nc(-c4cccnc4)nc(O)c3C2)c1 | -5.78
22 | Cc1cc(-c2cnc(NC3CC3)nc2-c2ccoc2C)on1 | -5.1
23 | Cc1cc(-c2cnc(NC3CC3)nc2-c2ccoc2)on1 | 2.18
24 | Cc1ncc(CN2CCc3c(nc(-c4ccccn4)[nH]c3=O)C2)n1C | -8.75
25 | Cc1n[nH]c(C)c1-c1nccnc1CC1CCN(S(C)(=O)=O)C1 (configuration not stated) | -7.83
26 | Cc1n[nH]c(C)c1-c1nccnc1CC1CCCN(C)C1 (configuration not stated) | -7.42

Row | Compound | cytotoxicity at 70.5 h [%]
27 | CN(C)c1cncc(C2CCN(CC3(O)CCCCC3)CC2)n1 | 25.1
28 | CC(=O)N1CCCC1c1cccc(NCc2ccccc2F)n1 (configuration not stated) | -1.09
29 | O=C(C1CCCC1)N1CCOC(c2nc(-c3ncccn3)no2)C1 (configuration not stated) | -4.9
30 | O=C(C1CCCC1)N1CCC(c2ccnc(Nc3cnccn3)n2)C1 (configuration not stated) | 15
31 | CC(C)(N)C(=O)N1CCCC(c2cncc(Oc3cccnc3)n2)C1 (configuration not stated) | -3.9
32 | Cc1ccc(-c2cccc(CC3(C(=O)O)CCOCC3)c2)c(C)c1 | -5.38
33 | CN(C)CCn1c([C@H]2CCCO2)cc2cccnc21 | -2.03
34 | Cc1ccc2c(c1)CN(C(=O)c1cccs1)C(CN(C)C)CO2 (configuration not stated) | -2.45
35 | OC1(Cn2ccc3ncccc32)CCN(Cc2cccnc2)CC1 | -2.24
36 | CCn1ncc(CN2CCC(O)(Cn3ccc4ncccc43)CC2)c1C | -1.63
37 | CC(C)C(=O)NC1CCCc2nc(N3CCOCC3)ncc21 (configuration not stated) | -0.959
38 | O=C(NC1CCCc2nc(N3CCOCC3)ncc21)C1CCCCC1 (configuration not stated) | 13.8
39 | Cc1ccc(=O)n(CC2(O)CCN(Cc3ccoc3)CC2)n1 | -3.06
40 | O=C(NC1CCCc2nc(N3CCCCC3)ncc21)C1CCCC1 (configuration not stated) | -4.53
41 | Cc1ccccc1-c1cc(CC2(C(=O)O)CCOCC2)on1 | -6.86
42 | O=C(c1cccs1)N1CCCC(c2cc(C(F)F)n3ncnc3n2)C1 (configuration not stated) | 0.957
43 | O=C(O)C1(Cc2cc(-c3ccc(F)cc3)no2)CCOCC1 | 8.42
44 | OCC1CCCN(Cc2c(C3CCCC3)[nH]c3ncccc23)C1 (configuration not stated) | 13.9
45 | COc1ccccc1CNc1ncc(-c2cc(C)no2)c(C(C)C)n1 | -9.02
46 | CC(=O)NC1CCN(C(=O)Nc2ccc(SC(F)F)cc2)CC1 | -4.73
47 | O=C(Nc1ccc(-c2csnn2)cc1)N1CCC(N2CCCC2)C1 (configuration not stated) | -14.2
48 | CCCC(C)(C)NC(=O)CCN1CCOC1=O | 0.72
49 | CC(C)COC(=O)N1CCN(C(=O)c2ccc3nccn3c2)CC1 | 30.9
50 | COc1cccc(CC(C)NC(=O)c2ccc(CNC(C)=O)cc2)c1 (configuration not stated) | -2.82
51 | CC(C)Cc1cc(C(=O)N2CCCN(c3ncccn3)CC2)[nH]n1 | -1.63
52 | CC(C)CCC(=O)N1CCN(C(=O)c2ccc3nccn3c2)CC1 | 15.2

Row | Compound | cytotoxicity at 70.5 h [%]
53 | Cc1nccn1-c1ccc(CNS(=O)(=O)N2CCCC(C)C2)cn1 (configuration not stated) | -4.59
54 | Cc1nccn1-c1ccc(CNS(=O)(=O)N2CCC(C)CC2)cn1 | 25.9
55 | CC1CN(C(=O)c2nccnc2N)c2ccc(F)cc2O1 (configuration not stated) | 1.2
56 | Cc1ccc2cccc(C(=O)NCC3CCN(C(C)C)C3)c2n1 (configuration not stated) | 12
57 | COc1cccc(CC(C)NC(=O)NCc2ccn(C)c2)c1 (configuration not stated) | 0.709
58 | O=C(CCc1ccccn1)NC1CCN(c2cccc(Cl)c2)C1 (configuration not stated) | 39.6
59 | CCOCC1CCN(C(=O)Nc2ccc(-c3csnn3)cc2)C1 (configuration not stated) | -11.9
60 | Cc1ccc(CC(=O)NC2CCN(c3cccc(Cl)c3)C2)cn1 (configuration not stated) | 22.6
61 | O=C(c1cnc(NCc2sccc2Br)c(Cl)c1)N1CCCCC1 | -9.35
62 | CCNC(=O)NC(C)(C)C(=O)NCCc1csc2ccccc12 | 2.01
63 | COc1cccc(CC(C)NC(=O)NCCc2cccnc2)c1 (configuration not stated) | -8.55
64 | O=C(Cc1cccc(O)c1)NC1CCN(c2cccc(Cl)c2)C1 (configuration not stated) | -3.87
65 | O=C(NCCN1CCCCCC1)c1cccc(Cl)c1Cl | 1.51
66 | Cc1nc(CNCc2ccc(N3CCN(C)CC3)nc2)cs1 | 16.7
67 | COc1ccc(CNC(=O)c2ccc(=O)n(C)c2)cc1C | -9.61
68 | CC(C)OCCC1CCCCN1S(N)(=O)=O (configuration not stated) | 10.9
69 | COc1ccc(Cl)cc1CS(=O)(=O)CC(=O)NC(C)CCC(C)C (configuration not stated) | -11.8
70 | Cc1ccc(N2N=C(C(=O)N(C)Cc3ccco3)NCC2=O)cc1 | 4.87
71 | COc1ccc(C(O)CNC(=O)Cn2ccc(=O)n(C)c2=O)cc1 (configuration not stated) | -5.99
72 | CCN(C(=O)C1=NN(c2ccccc2)C(=O)CN1)c1ccccc1 | -2.62
73 | CNC(=O)C1CCCCN1C(=O)c1sc(-c2ccc(C)o2)nc1C (configuration not stated) | 3.27
74 | CNC(=O)C1CCCCN1C(=O)c1csc(-c2ccccc2)n1 (configuration not stated) | -9.17
75 | NC(=O)C(NCCc1ccc(Cl)s1)c1ccccc1 (configuration not stated) | -11.4
76 | Cc1nc(-c2ccncc2)nc(N(C)CCc2ccncc2)c1C | 4.43
77 | O=C(CCNC(=O)C1=Cc2ccccc2OC1)NCc1ccncc1 | -2.01
78 | CS(=O)(=O)CCC(=O)N1CCC(c2cccc(F)c2)C1 (configuration not stated) | 5.28

Row | Compound | cytotoxicity at 70.5 h [%]
79 | CCOCCNCC1CCN(CCO)CC1 | -3.07
80 | COc1nc(N2CCN(C(C)=O)CC2)ncc1Br | -3.12
81 | Cc1nonc1NC(=O)CCn1cc(Br)ccc1=O | 6.64
82 | CCOc1cc(CNc2cc(-c3nc(C)no3)ccn2)ccc1OC | 1.28
83 | CNC(=O)Cc1noc(-c2cc3c(s2)CCCCCC3)n1 | -7.62
84 | CNS(=O)(=O)CC(=O)N1CCC(c2ccc(F)c(F)c2)CC1 | 0.695
85 | CCC1COCCN1C(=O)CNC(=O)c1ccsc1 (configuration not stated) | -8.2
86 | CC(NS(=O)(=O)N(C)C(C)C)C(=O)N(C)C (configuration not stated) | -4.6
87 | CN(CCOCC(F)(F)F)CC1CCN(CCO)CC1 | 16.2
88 | CCCN(CCC)S(=O)(=O)NC(C)C(=O)N(C)C (configuration not stated) | -6.45
89 | CC(O)CN1CCC(CNCCOCC(F)(F)F)CC1 (configuration not stated) | -7.95
90 | OCCN1CCC(CNCCOCC(F)(F)F)CC1 | 3.98
91 | O=C(COC1CCOC1)N(CC(F)F)c1cccc(Cl)c1 (configuration not stated) | -3.13
92 | O=C(CCNCc1cccc(O)c1)N1CCc2sccc2C1 | -7.91
93 | Cc1cc(CCC(=O)Nc2nncs2)nc(C2CCCN2)n1 (configuration not stated) | 1.25
94 | O=C(NCCn1nc(C2CCNC2)c2cccnc21)C1CC1 (configuration not stated) | -1.28
95 | O=C(NCCn1nc(C2CCNC2)c2cccnc21)C1CCC1 (configuration not stated) | 2.22
96 | COCC(=O)N1CCCC(c2cc(C(F)F)n3ncnc3n2)C1 (configuration not stated) | -2.53
97 | c1cnc2c(c1)cc([C@@H]1CCCO1)n2CCN1CCCCC1 | 0.422
98 | c1cnc2[nH]c(C3CCCNC3)c(CN3CCCOCC3)c2c1 (configuration not stated) | -5.16
99 | CNC(=O)C1(CCCc2ccncc2)CCN1 (configuration not stated) | -9.29
100 | COc1ccc(CN(Cc2c[nH]cn2)CC2CCCO2)c(OC)c1 (configuration not stated) | -3.26
101 | COc1ccc(CN(Cc2cncn2C)CC2CCCO2)cc1 (configuration not stated) | -7.47
102 | COc1cccc(CN2C[C@@H]3CC[C@@](O)(c4ccccn4)[C@@H]3C2)c1OC | 12.8
